Type in all cases: cell-based
Series [1] has as its system AGS cell strain. Description: Cell growth test (CCK-8 assay) after transfection of BART miRNA mimics. To be noted: 72 hours after transfection; for Relative Cell Growth: mimic 10 nM, relative to scrambled control (=1). In outline:
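EBV-negative AGS gastric cells in RPMI1640 with 10% FBS, seeded 1×10^3 cells/well and transfected with synthetic mature BART miRNA mimics (10 nM; dose series 1, 3, 10, 30 nM) via G-fectin. Growth read by CCK-8 after 72 h (or over time), 2 h at 37 °C, absorbance measured.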
(Formazan colour is commonly taken as a measure of viable cells.)

Series [2] deals with AGS cell strain. Description: Measurement of apoptosis (Annexin V staining, FACS). To be noted: for Relative Apoptotic cell: AGS, mimic 10 nM, 10 uM 5-FU 24 h after transfection, then 48 hours, Annexin V, relative to scrambled control (=1), n=9; for effect on cell growth and apoptosis (summary statement): mimics transfected to AGS, tumor cell strain not infected with EBV. In outline:
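EBV-negative AGS cells (2×10^5/well) were transfected with 10 nM synthetic miRNA. Twenty-four hours later they received 10 uM 5-FU for 48 h at 37 °C. The apoptotic cell ratio was measured by PE Annexin V staining and FACS.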

The subject of series [3] is AGS cell strain. The series can be described thus: Effect on cell cycle (propidium iodide staining, FACS, sub G1). Conditions: mimic 10 nM, 10 uM 5-FU 24 h after transfection, then 48 hours, relative to scrambled control (=1). In a few lines:
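AGS gastric cells (EBV-negative), 2×10^5 per well, were transfected with synthetic miRNA (10 nM). DNA was stained with propidium iodide, and the cell-cycle-altered fraction was measured by FACS.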

As for “BART19-3p: EBV BART miRNA mimic, double stranded RNA; sense SEQ NO: 71, antisense SEQ NO: 72 (sense UUUUGUUUGCUUGGGAAUGCU; antisense AGCAUUCCCAAGCAAACAAAA; chemistry not given here)”, the “Relative Cell Growth” value in the series on AGS cell strain [1] (n=9) came out at 1.237. For the same substance, the “Relative Apoptotic cell” value with AGS cell strain [2] stood at 0.9742. Further, the “Relative Sub G1” value with AGS cell strain [3] is listed as 1.244; with AGS cell strain [3] (listed as 19-3p), “increased”.
With “BART19-5p: EBV BART miRNA mimic, double stranded RNA; sense SEQ NO: 69, antisense SEQ NO: 70 (sense ACAUUCCCCGCAAACAUGACAUG; antisense CAUGUCAUGUUUGCGGGGAAUGU; chemistry not given here)”, in the series with AGS cell strain [1] (n=9), the “Relative Cell Growth” value came to 1.151. Moreover, the “Relative Apoptotic cell” value in the series on AGS cell strain [2] turned out to be 1.071. Besides, the results for the “Relative Sub G1” value with AGS cell strain [3] and in the series on AGS cell strain [3] (listed as 19-5p) were 1.349 and “increased”, respectively.
As for “BART20-3p: EBV BART miRNA mimic, double stranded RNA; sense SEQ NO: 75, antisense SEQ NO: 76 (sense CAUGAAGGCACAGCCUGUUACC; antisense GGUAACAGGCUGUGCCUUCAUG; chemistry not given here)”, the cell growth result in the series on AGS cell strain [1] (30 nM) is reported as “almost no cell growth”. Moreover, the “cell growth depending on mimic concentration (onset of inhibition)” value in the series with AGS cell strain [1] (1, 3, 10 and 30 nM) is reported as “decreased cell growth, beginning at 10 nm”. Further, the “Relative Cell Growth” value in the series on AGS cell strain [1] (n=9) is 0.8577; in the series with AGS cell strain [1] (n=9, listed as miR-BART20-3p), “inhibited cell growth”. Moreover, the “Relative Apoptotic cell” value in the series on AGS cell strain [2] is on record as 1.416; with AGS cell strain [2] (listed as 20-3p), “significantly higher”. In addition, the “effect on cell growth and apoptosis (summary statement)” value (“effect on cell growth and apoptosis” below) in the series on AGS cell strain [2] is “inhibit cell growth and promote apoptosis”. In addition, the “Relative Sub G1” value is reported as 1.618 in the series with AGS cell strain [3] and “increased” in the series on AGS cell strain [3] (listed as 20-3p).
“BART20-5p: EBV BART miRNA mimic, double stranded RNA; sense SEQ NO: 73, antisense SEQ NO: 74 (sense UAGCAGGCAUGUCUUCAUUCC; antisense GGAAUGAAGACAUGCCUGCUA; chemistry not given here)”: the “Relative Cell Growth” value in the series on AGS cell strain [1] (n=9) came out at 1.245. Moreover, in the series on AGS cell strain [2], the “Relative Apoptotic cell” value came to 1.075. In addition, the “Relative Sub G1” value in the series with AGS cell strain [3] is given as 1.379; in the series with AGS cell strain [3] (listed as 20-5p), “increased”.
Turning to “BART21-3p: EBV BART miRNA mimic, double stranded RNA; sense SEQ NO: 35, antisense SEQ NO: 36 (sense CUAGUUGUGCCCACUGGUGUUU; antisense AAACACCAGUGGGCACAACUAG; chemistry not given here)”, the “Relative Cell Growth” value in the series with AGS cell strain [1] (n=9) stood at 1.215. In addition, in the series on AGS cell strain [2], the “Relative Apoptotic cell” value is on record as 1.155; the “effect on cell growth and apoptosis” value is “inhibit cell growth and promote apoptosis”. The “Relative Apoptotic cell” value with AGS cell strain [2] (listed as 21-3p) is given as “significantly higher”. For the same substance, the “Relative Sub G1” value in the series on AGS cell strain [3] amounted to 0.965.
Consider “BART21-5p: EBV BART miRNA mimic, double stranded RNA; sense SEQ NO: 33, antisense SEQ NO: 34 (sense UCACUAGUGAAGGCAACUAAC; antisense GUUAGUUGCCUUCACUAGUGA; chemistry not given here)”, for which the “Relative Cell Growth” value with AGS cell strain [1] (n=9) was 1.304. The “Relative Apoptotic cell” value in the series on AGS cell strain [2] is listed as 0.9207. Further, in the series with AGS cell strain [3], the “Relative Sub G1” value worked out at 1.087.
“BART22-3p: EBV BART miRNA mimic, double stranded RNA; sense SEQ NO: 55, antisense SEQ NO: 56 (sense UUACAAAGUCAUGGUCUAGUAGU; antisense ACUACUAGACCAUGACUUUGUAA; chemistry not given here)”: the “Relative Cell Growth” value in the series with AGS cell strain [1] (n=9) turned out to be 1.495. In the series on AGS cell strain [2], the “Relative Apoptotic cell” value is 1.106. For the same substance, the “Relative Sub G1” value in the series with AGS cell strain [3] is on record as 1.054.
On to “BART22-5p: EBV BART miRNA mimic, double stranded RNA; sense SEQ NO: 53, antisense SEQ NO: 54 (sense UGCUAGACCCUGGAGUUGAACC; antisense GGUUCAACUCCAGGGUCUAGCA; chemistry not given here)”, for which the “Relative Cell Growth” value in the series with AGS cell strain [1] (n=9) came out at 1.529. For the same substance, in the series with AGS cell strain [2], the “Relative Apoptotic cell” value worked out at 1.197; the “effect on cell growth and apoptosis” value was “inhibit cell growth and promote apoptosis”. Further, the “Relative Apoptotic cell” value in the series with AGS cell strain [2] (listed as 22-5p) was “significantly higher”. The “Relative Sub G1” value in the series on AGS cell strain [3] was 0.9654.

The record behind these values is patent US9243247B2, “Composition for promoting apoptosis or inhibiting cell growth, comprising epstein-barr virus microrna” (Catholic University Industry Academic Cooperation Foundation, priority 2011, dated 2016).
